One series relates to microalgae. Put plainly: Ranges of microalgae toxicity (serial dilution of fungicide in growing culture). Conditions: range in which fungicide begins to show growth effects on microalgae. The source says:
The present disclosure provides for the introduction of fungicides at an effective concentration. Effective concentrations may be determined according to manufacturer's instructions or may be determined empirically. An effective concentration of a fungicide is not toxic to the microalgae being cultured in the liquid system. Methods to determine toxicity are known in the art and include serial dilutions of a test fungicide in a growing liquid culture of microalgae. One of skill in the art would understand that different microalgae may have different ranges of toxicity that may be determined by growth of a microalga in the presence of a serial dilution of a fungicide.
Algae are screened for sensitivity to chemicals by preparing 180 ml of a log phase culture. The log phase culture is transferred into a 96 well microtiter plate at an absorbance at 750 nm (OD750 or A750) of ˜0.2. Twenty microliters of media is provided into the top row as a negative control, the middle six rows receive a 20 microliter dilution, which is a 10 fold dilution of the chemical at each transfer, of the chemical across an appropriate concentration gradient, and the bottom row receives 20 microliter of the solvent used to solubilize the pesticide alone as a control. The total volume per well is 200 μl. Each chemical is tested in triplicate. The growth of the algae is tracked daily by measuring the A750. After 8 days, the growth rate of the algae is measured by fitting the growth curve to a log model and deriving the maximum growth rate (r). The impact of the chemical is calculated by comparing the r of the algae at various dilutions of the pesticide to the control.

A further series has as its system Scenedesmus species. Put plainly: Algae sensitivity screen, 96 well, growth rate by A750 over 8 days. Type of series: cell-based. Here is the method: (§1) The total volume per well is 200 μl. Each chemical is tested in triplicate.
The next series has as its system Scenedesmus dimorphus. The description is as above. Type of series: cell-based. The procedure:
as §1

The subject of the next series is Desmid species. The description is as above. Type of series: cell-based. The procedure: as §1
Series [1] relates to Pest in infected Scenedesmus dimorphus culture. Put plainly: Fungicide efficacy on pest control in infected microalgae culture. Type of series: cell-based. Conditions: for Rating: rating scale of 0 to 3 by percent efficacy; for Scenedesmus dimorphus efficacy: first trial. The source says:
Failure to treat an infected culture results in the collapse and loss of the microalgae culture. […] Test fungicides are graded on a rating scale of 0 to 3 where a score of 0 represents an efficacy of between 0 and 25%, a score of 1 represents an efficacy of between 26 and 50%, a score of 2 represents an efficacy of between 51 and 75% and a score of 3 represents an efficacy of between 76 and 100%.

The next series has as its system pest FD100. The series can be described thus: 200,000 liter outdoor desmid pond P08, qPCR monitoring and treatment. Set-up: species or system chytrid FD100. Conditions: 1 ppm added on day 30 after decrease in optical density. The procedure:
A 200,000 liter outdoor pond located in Las Cruces, N. Mex. is inoculated with a desmid strain at an initial OD (750 nm) of ˜0.15 (pond P08). Growth of the microalgae is monitored daily by measuring the ash free dry weight of the culture. PCR monitoring is performed daily to detect the presence of pests.
Initially, the Ct value for the pest is above the threshold of Ct=30 until day 15 (See, FIG. 14). The measured Ct observed for pest FD100 monitoring stays below Ct=30 and indicates a need for crop protective action. On day 18 post-inoculation, fluazinam is added at a concentration of 0.5 ppm. Daily monitoring is continued and the Ct observed for pest FD100 increases above the Ct=30 threshold and remains above the threshold through day 38.
Successful culture depends on the timely identification of a pest. On day 30, in response to a decrease in optical density of the culture, 1 ppm of pyraclostrobin is added.

Setting [2] is: log phase culture, 10 fold dilutions.
The mark [3] stands for this setting: Tetradesmus dimorphus, read-out: Scenedesmus dimorphus efficacy.
Setting [4] is: log phase culture, 10 fold dilutions, 8 days.

For `CC(Cc1ccc(C(C)(C)C)cc1)CN1CCCCC1` (stereo not drawn) [fenpropidin, 1-[3-(4-tert-butylphenyl)-2-methylpropyl]piperidine], the “Ranges of Microalgae toxicity” value with microalgae is 0.00195-1.953 ppm. In addition, in the series on Scenedesmus species (cell marked (ppb)), the Scenedesmus species toxicity is reported as 0.488-1.953 ppb. Also, the Scenedesmus dimorphus toxicity with Scenedesmus dimorphus (setting [2]) was 0.00195-0.0078 ppm. In addition, the Desmid species toxicity in the series on Desmid species (setting [2]) was 0.031-0.125 ppm. For the same compound, the “positive efficacy in a first trial confirmed in a second trial” value in series [1] (Table 6) is on record as “not confirmed”. Moreover, the activity at 0.8 ppm in series [1] (setting [3]) worked out at 18.5%. Further, the Rating in series [1] was 0 (a score of 0 represents an efficacy of between 0 and 25%).
With `O=C(Nc1ccccc1)N(Cc1ccc(Cl)cc1)C1CCCC1` [pencycuron], the “Ranges of Microalgae toxicity” value in the series with microalgae is 0.781-12.5 ppm. In addition, in the series with Scenedesmus species (setting [4]), the Scenedesmus species toxicity is 0.781-3.125 ppm. Further, in the series on Scenedesmus dimorphus (setting [2]), the Scenedesmus dimorphus toxicity was 3.125-12.5 ppm. In the series on Desmid species (setting [2]), the Desmid species toxicity is 3.125-12.5 ppm. Further, the Rating in series [1] was 0 (a score of 0 represents an efficacy of between 0 and 25%).
Take `CCCOC(=O)NCCCN(C)C` [propamocarb]: the “Ranges of Microalgae toxicity” value in the series with microalgae was 3.906-62.5 ppm. Further, the Scenedesmus species toxicity in the series with Scenedesmus species (setting [4]) is on record as 3.906-15.63 ppm. In the series with Scenedesmus dimorphus (setting [2]), the Scenedesmus dimorphus toxicity was 15.63-62.5 ppm. Moreover, the Desmid species toxicity in the series on Desmid species (setting [2]) was 3.906-15.625 ppm. Also, in series [1], the Rating is 0 (a score of 0 represents an efficacy of between 0 and 25%).
In the case of `COC(=O)N(OC)c1ccccc1COc1ccn(-c2ccc(Cl)cc2)n1` [pyraclostrobin, methyl N-[2-[[[1-(4-chlorophenyl)-1H-pyrazol-3-yl]oxy]methyl]phenyl]-N-methoxycarbamate], the “culture outcome after second fungicide” value in the series on pest FD100 is on record as “the culture collapses”. Further, the “Ranges of Microalgae toxicity” value in the series with microalgae is given as over 15 ppm. Also, in series [1] (setting [3]), the activity at 2 ppm stood at 66%. Moreover, in series [1], the Rating was 2 (a score of 2 represents an efficacy of between 51 and 75%).
Turning to `CON=C(Cc1cccnc1)c1ccc(Cl)cc1Cl` [pyrifenox], in the series with microalgae, the “Ranges of Microalgae toxicity” value is 0.004-0.156 ppm. In the series with Scenedesmus species (setting [4]), the Scenedesmus species toxicity is 0.039-0.156 ppm. In addition, in the series with Scenedesmus dimorphus (setting [2]), the Scenedesmus dimorphus toxicity is on record as 0.039-0.156 ppm. In addition, in the series with Desmid species (setting [2]), the Desmid species toxicity is recorded as 0.004-0.0156 ppm. Besides, in series [1] (result as symbol), the Scenedesmus dimorphus efficacy result is reported as “(+/−)”. Further, the Rating in series [1] was 0 (a score of 0 represents an efficacy of between 0 and 25%).
Turning to `CCCN(CC)CC1COC2(CCC(C(C)(C)C)CC2)O1` (stereo not drawn) [spiroxamine], in the series on microalgae, the “Ranges of Microalgae toxicity” value was 0.0625-1.0 ppm. Moreover, in the series on Scenedesmus species (Scenedesmus species, 8 days), the Scenedesmus species toxicity is reported as 0.250-1.0 ppm. For the same compound, the Scenedesmus dimorphus toxicity in the series with Scenedesmus dimorphus (Scenedesmus dimorphus) is given as 0.0625-0.250 ppm. In addition, the Desmid species toxicity with Desmid species (Desmid species) is listed as 0.250-1.0 ppm. Also, the Rating in series [1] was 0 (a score of 0 represents an efficacy of between 0 and 25%).
`Cc1ccc(N(SC(F)(Cl)Cl)S(=O)(=O)N(C)C)cc1` [tolylfluanid, N-[dichloro(fluoro)methyl]sulfanyl-N-(dimethylsulfamoyl)-4-methylaniline]: in the series on microalgae, the “Ranges of Microalgae toxicity” value is reported as 1.56-25.0 ppm. Moreover, the Scenedesmus species toxicity with Scenedesmus species (Scenedesmus species, 8 days) was 6.25-25.0 ppm. Also, in the series on Scenedesmus dimorphus (Scenedesmus dimorphus), the Scenedesmus dimorphus toxicity was 1.56-6.25 ppm. For the same compound, the Desmid species toxicity with Desmid species (Desmid species) is listed as 6.25-25.0 ppm. Besides, in series [1] (5 ppm, result in words), the Scenedesmus dimorphus efficacy was found to be 5 ppm Delayed Crash. Besides, the Rating in series [1] was 0 (a score of 0 represents an efficacy of between 0 and 25%).
On to `CCCOC/C(=N\c1ccc(Cl)cc1C(F)(F)F)n1ccnc1` [triflumizole], for which the “Ranges of Microalgae toxicity” value with microalgae is reported as 1.563-6.25 ppm. Moreover, in the series with Scenedesmus species (Scenedesmus species, 8 days), the Scenedesmus species toxicity is reported as 1.563-6.25 ppm. The Scenedesmus dimorphus toxicity in the series on Scenedesmus dimorphus (Scenedesmus dimorphus) was 1.563-6.25 ppm. In addition, the Desmid species toxicity in the series with Desmid species (Desmid species) is on record as 1.563-6.25 ppm. Besides, in series [1], the Rating was 0 (a score of 0 represents an efficacy of between 0 and 25%).
For `CCC(C)(NC(=O)c1cc(Cl)c(C)c(Cl)c1)C(=O)CCl` (stereo not drawn) [zoxamide], in the series on microalgae, the “Ranges of Microalgae toxicity” value was 0.0156-0.250 ppm. The Scenedesmus species toxicity with Scenedesmus species (Scenedesmus species, 8 days) was 0.0156-0.0625 ppm. The Scenedesmus dimorphus toxicity in the series with Scenedesmus dimorphus (Scenedesmus dimorphus) was 0.0625-0.250 ppm. For the same compound, the Desmid species toxicity in the series with Desmid species (Desmid species) is recorded as 0.0156-0.0625 ppm. The Rating in series [1] is 0 (a score of 0 represents an efficacy of between 0 and 25%).

The values above are taken from patent US20140378513A1, “USE OF FUNGICIDES IN LIQUID SYSTEMS” (priority 2011, published 2014).
